# What was measured:
# [1] = Activation of Keap1/Cul3/Nrf2 in human BEAS2B cells assessed as increase in NQO1 levels measured after 48 hrs; assay type: cell-based; details: BEAS-2B
# Keap1/Nrf2 = Keap1/Nrf2 (Homo sapiens, UniProt Q14145+Q16236); assay: Binding affinity to FLAG/His-tagged Keap1 (unknown origin)/biotinylated full-length FLAG/His/Tev/Avi-tagged NRF2 (unknown origin) expressed in baculovirus infected Sf9 insect cells measured after 1 hr by TR-FRET assay
# Homo sapiens = organism: Homo sapiens; assay: Activation of Keap1/Cul3/Nrf2 in NHBE cells assessed as induction of HO-1 gene expression at 10 uM after 24 hrs by RT-PCR analysis relative to SFN; assay type: cell-based
# [2] = Binding affinity to FLAG/His-tagged Keap1 (unknown origin)/biotinylated full-length FLAG/His/Tev/Avi-tagged Cul3 (unknown origin) expressed in baculovirus infected Sf9 insect cells measured after 1 hr by TR-FRET assay; design: species or system Homo sapiens
# [3] = Lipophilicity, log D of the compound at pH 7.4 by chromatographic method; assay type: physicochemical; details: buffer
# [4] = Kinetic solubility of the compound at pH 7.4 by CLND method; assay type: physicochemical; details: buffer, read-out: Kinetic_solubility
# Keap1/Nrf2, sequence (Q16236 whole entry): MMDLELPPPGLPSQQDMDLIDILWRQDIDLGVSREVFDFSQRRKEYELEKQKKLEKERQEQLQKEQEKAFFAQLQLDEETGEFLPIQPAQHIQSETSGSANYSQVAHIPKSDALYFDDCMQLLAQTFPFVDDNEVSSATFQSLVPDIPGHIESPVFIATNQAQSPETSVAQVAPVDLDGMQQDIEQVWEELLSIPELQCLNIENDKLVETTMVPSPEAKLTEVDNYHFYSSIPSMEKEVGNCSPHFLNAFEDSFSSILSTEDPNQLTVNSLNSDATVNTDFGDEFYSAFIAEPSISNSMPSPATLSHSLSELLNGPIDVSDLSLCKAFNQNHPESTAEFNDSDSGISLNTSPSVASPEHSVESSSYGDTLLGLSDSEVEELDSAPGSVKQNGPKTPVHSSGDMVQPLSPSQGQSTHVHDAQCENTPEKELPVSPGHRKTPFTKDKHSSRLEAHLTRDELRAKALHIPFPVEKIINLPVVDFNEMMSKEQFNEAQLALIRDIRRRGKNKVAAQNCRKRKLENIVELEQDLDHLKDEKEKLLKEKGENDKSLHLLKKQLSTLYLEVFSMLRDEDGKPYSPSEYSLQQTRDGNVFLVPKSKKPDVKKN
# Keap1/Nrf2, sequence (Q14145 whole entry): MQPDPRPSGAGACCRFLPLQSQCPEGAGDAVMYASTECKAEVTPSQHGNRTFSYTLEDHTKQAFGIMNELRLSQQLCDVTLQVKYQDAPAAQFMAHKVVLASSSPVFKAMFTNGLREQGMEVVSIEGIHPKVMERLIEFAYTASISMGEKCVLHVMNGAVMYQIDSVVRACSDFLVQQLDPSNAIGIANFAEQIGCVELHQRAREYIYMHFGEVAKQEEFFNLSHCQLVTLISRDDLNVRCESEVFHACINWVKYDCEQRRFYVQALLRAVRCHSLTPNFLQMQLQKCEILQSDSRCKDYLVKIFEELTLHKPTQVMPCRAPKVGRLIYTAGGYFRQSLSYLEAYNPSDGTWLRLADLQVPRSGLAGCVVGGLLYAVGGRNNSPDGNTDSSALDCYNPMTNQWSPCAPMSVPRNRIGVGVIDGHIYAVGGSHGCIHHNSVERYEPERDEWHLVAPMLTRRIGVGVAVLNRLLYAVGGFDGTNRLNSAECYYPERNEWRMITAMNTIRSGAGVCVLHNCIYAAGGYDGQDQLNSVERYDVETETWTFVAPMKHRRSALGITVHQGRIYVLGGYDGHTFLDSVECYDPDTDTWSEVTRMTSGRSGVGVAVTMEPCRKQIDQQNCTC
Structure (SMILES),EC50 [1],IC50 (Keap1/Nrf2),fold change (FC) (Homo sapiens),pIC50 [2],chromatographic logD [3],solubility kinetic [4]
CN(C)c1c(N(C)CCCNC(=S)SC[C@H](NC(=O)CC[C@H](N)C(=O)O)C(=O)NCC(=O)O)c(=O)c1=O,1.58 µM,–,–,–,–,–
C[S+]([O-])CCCCCN=C=S (stereo unspecified),–,> 100 µM,0.35,4.1,3.12,≥ 458 µM
CN(C)CCS(=O)(=O)CCCCN=C=S,–,> 100 µM,3.25,4.4,2.84,376 µM
O=C(NCCCCN=C=S)Nc1ccc2c(c1)OCO2,–,6.31 µM,10.5,5,4.25,42 µM
O=C(NCCCCN=C=S)Nc1ccc2c(c1)OCCO2,–,15.8 µM,0.65,4.9,4.04,131 µM
CC(C)(C)OC(=O)N1CCC(SC(=S)NCCCCNC(=O)OCc2ccccc2Cl)CC1,–,2.51 µM,40.3,4.8,7.72,2 µM
COC(=O)C(CS(=O)(=O)CCCCN=C=S)NC(C)=O (stereo unspecified),–,> 100 µM,0.16,4.3,2.44,≥ 444 µM
C[S+]([O-])CCCCNC(=S)SCCCO (stereo unspecified),–,25.1 µM,0.24,< 4,0.68,≥ 467 µM
CN1CCC(SC(=S)NCCCCNC(=O)Nc2ccncc2)CC1,–,20 µM,29.8,4.9,1.02,≥ 350 µM
CN1CCC(SC(=S)NCC2CCS(=O)(=O)C2)CC1 (stereo unspecified),–,> 100 µM,0.38,< 4,1.03,≥ 331 µM
O=C(NCCCCN=C=S)c1ccno1,–,63.1 µM,2.65,4.2,3.27,≥ 473 µM
O=S1(=O)CCC(CN=C=S)C1 (stereo unspecified),–,> 100 µM,0.37,4.4,1.82,≥ 639 µM
CC(=O)N(C)CCS(=O)(=O)CCCCN=C=S,–,> 100 µM,0.29,< 4,2.4,≥ 340 µM
O=C(CCCCN=C=S)NCc1ccccc1,–,20 µM,28,4.7,4.59,≥ 418 µM
C[S+]([O-])CCCCNC(=S)SC1CCN(C(=O)OC(C)(C)C)CC1 (stereo unspecified),–,> 100 µM,0.48,4.3,4.23,382 µM
CC(C)(C)OC(=O)N1CCC(SC(=S)NCCCCNC(=O)Nc2ccc3c(c2)OCO3)CC1,–,50.1 µM,55.6,4.4,6.04,17 µM
CN1CCC(SC(=S)NCCCCNC(=O)Nc2cccnc2)CC1,–,39.8 µM,16,4.7,1.11,≥ 345 µM
CNC(=O)NCCCCN=C=S,–,50.1 µM,1.04,4.1,2,≥ 436 µM
CC(=O)NCCS(=O)(=O)CCCCN=C=S,–,> 100 µM,0.37,4.2,1.8,≥ 422 µM
CN1CCC(SC(=S)NCCCCNC(=O)OCc2ccccc2Cl)CC1,–,3.98 µM,6.26,5.3,4.06,280 µM
O=S(=O)(CC1(c2ccc(N=C=S)cc2)COC1)c1ccccc1,–,39.8 µM,0.23,4.3,4.21,9 µM
CN1CCC(SC(=S)NCCCCNC(=O)NC2CCCC2)CC1,–,39.8 µM,19.3,4.5,2.33,≥ 245 µM
[O-][S+](CCCCN=C=S)c1ccccc1 (stereo unspecified),–,50.1 µM,5.99,4.3,4.11,213 µM
CN1CCC(SC(=S)NCCCCNC(=O)NCc2ccccc2)CC1,–,20 µM,14.5,4.9,2.4,≥ 451 µM
S=C=NCCN1CCSCC1,–,> 100 µM,0.21,< 4,4.93,≥ 367 µM

Structure (SMILES),EC50 [1],IC50 (Keap1/Nrf2),fold change (FC) (Homo sapiens),pIC50 [2],chromatographic logD [3],solubility kinetic [4]
CS(=O)(=O)N1CCC(CN=C=S)C1 (stereo unspecified),–,> 100 µM,0.68,4.1,3.22,≥ 451 µM
O=C(NCCCCN=C=S)c1ccncc1,–,> 100 µM,0.93,4.4,2.86,≥ 358 µM
[O-][S+](CCCCN=C=S)c1ccccn1 (stereo unspecified),–,31.6 µM,1.17,4.2,3.16,≥ 372 µM
CC(=O)NCC[S+]([O-])CCCCN=C=S (stereo unspecified),–,> 100 µM,0.15,< 4,1.09,≥ 180 µM
CN1CCC(SC(=S)NCCCCNC(=O)Nc2ccc3c(c2)OCO3)CC1,–,20 µM,25.1,5.1,2.46,≥ 358 µM
O=C(NCCCCN=C=S)c1cccnc1,–,50.1 µM,1.78,4.1,2.63,≥ 289 µM
CCNC(=O)N1CCC(SC(=S)NCCCCNC(=O)NCc2ccccc2)CC1,–,63.1 µM,81.8,4.4,3.43,255 µM
O=C(NCCCCN=C=S)OCc1ccccc1Cl,–,5.01 µM,3.21,5.2,6.35,73 µM
CC(C)(C)OC(=O)N1CCC(SC(=S)NCCCCNC(=O)Nc2cccnc2)CC1,–,50.1 µM,2.88,4.3,4.97,114 µM
O=C(NCCCCN=C=S)OCc1ccncc1,–,39.8 µM,13.3,4.6,3.5,354 µM
CC(C)(C)OC(=O)N1CCC(SC(=O)NCCCCN=C=S)CC1,–,12.6 µM,4.01,5.1,6.72,77 µM
Cl.O=C(NCCCCNC(=S)SC1CCNCC1)Nc1ccncc1,–,50.1 µM,25.8,4.7,0.49,281 µM
CC(C)(C)OC(=O)N1CCC(SC(=S)NCCCCNC(=O)Nc2ccc3nccnc3c2)CC1,–,15.8 µM,100,4.8,5.02,42 µM
Cn1cc(CCN=C=S)c2ccccc21,–,10 µM,0.04,5.2,7.23,38 µM
CC(C)(C)OC(=O)N1CCC(SC(=S)NCCCCNC(=O)NCc2ccccc2)CC1,–,7.94 µM,18.6,4.7,6.05,34 µM
CC(C)(C)OC(=O)N1CCC(SC(=S)NCCCCNC(=O)Nc2ccncc2)CC1,–,31.6 µM,20.7,4.6,4.58,85 µM
O=S(=O)(CCCCN=C=S)c1ccccn1,–,31.6 µM,2.24,4.3,3.85,≥ 331 µM
CN(C)CC[S+]([O-])CCCCN=C=S (stereo unspecified),–,> 100 µM,0.49,< 4,1.47,≥ 219 µM
C[S+]([O-])CCCCNC(=S)SCCSC(=S)NCCCC[S+](C)[O-] (stereo unspecified),–,> 100 µM,0.74,4.3,1.9,≥ 425 µM
CN1CCC(SC(=S)NCCCCNC(=O)OCc2ccccc2)CC1,–,10 µM,4.67,5.2,3.49,355 µM
COC(=O)[C@H](CSC(=S)NCCCC[S+](C)[O-])NC(C)=O (stereo partly specified),–,> 100 µM,0.85,< 4,1.04,≥ 510 µM
CN1CCC(SC(=S)NCCCCNC(=O)Oc2ccccc2)CC1,–,25.1 µM,5.52,4.8,0.9,≥ 410 µM
CC(C)(C)OC(=O)N1CCC(SC(=S)NCCCCNC(=O)OCc2ccccn2)CC1,–,> 100 µM,1.47,< 4,5.67,80 µM
O=S(=O)(CCCCN=C=S)c1ccccc1,–,50.1 µM,4.31,4.6,4.92,≥ 364 µM
